Reference: US8658604B2, “Template-fixed beta-hairpin peptidomimetics with protease inhibitory activity” (Polyphor Ltd, priority 2005, dated 2014)
Where a SMILES comes first, the peptide text is derived from it.

Legend:
HELA cells (Acc57) = assay: Cytotoxicity assay (MTT reduction), HELA cells; type: cell-based; conditions: Hela cells
Description: The cytotoxicity of the peptides to HELA cells (Acc57) and COS-7 cells (CRL-1651) was determined using the MTT reduction assay [see ref. 2 and 3, below]. Briefly the method was as follows: HELA cells and COS-7 cells were seeded at 7.0×10^3 and, respectively, 4.5×10^3 cells per well and grown in 96-well microtiter plates for 24 hours at 37° C. at 5% CO2. At this point, time zero (Tz) was determined by MTT reduction (see below). The supernatant of the remaining wells was discarded, and fresh medium and the peptides in serial dilutions of 12.5, 25 and 50 μM were pipetted into the wells. Each peptide concentration was assayed in triplicate. Incubation of the cells was continued for 48 hours at 37° C. at 5% CO2. Wells were then washed once with phosphate buffered saline (PBS) and subsequently 100 μl MTT reagent (0.5 mg/ml in medium RPMI1640 and, respectively, DMEM) were added to the wells. This was incubated at 37° C. for 2 hours and subsequently the medium was aspirated and 100 μl isopropanol were added to each well. The absorbance at 595 nm of the solubilized product was measured (OD595peptide). For each concentration averages were calculated from triplicates. The percentage of growth was calculated as follows: (OD595peptide-OD595Tz-OD595Empty well)/(OD595Tz-OD595Empty well)×100% and was plotted for each peptide concentration.
The LC 50 values (Lethal Concentration, defined as the concentration that kills 50% of the cells) were determined for each peptide by using the trend line function of EXCEL (Microsoft Office 2000) for the concentrations (50, 25, 12.5 and 0 μM), the corresponding growth percentages and the value −50, (=TREND(C50:C0,%50:%0,−50)).
The GI 50 (Growth Inhibition) concentrations were calculated for each peptide by using a trend line function for the concentrations (50, 25, 12.5 and 0 μg/ml), the corresponding percentages and the value 50, (=TREND (C50:C0,%50:%0,50).

[1] = molecular target: T1, Elastase from human neutrophils (Homo sapiens, UniProt P08246); assay: Enzymatic assay, elastase; conditions: Elastase IC50
T1 sequence (P08246 30-267): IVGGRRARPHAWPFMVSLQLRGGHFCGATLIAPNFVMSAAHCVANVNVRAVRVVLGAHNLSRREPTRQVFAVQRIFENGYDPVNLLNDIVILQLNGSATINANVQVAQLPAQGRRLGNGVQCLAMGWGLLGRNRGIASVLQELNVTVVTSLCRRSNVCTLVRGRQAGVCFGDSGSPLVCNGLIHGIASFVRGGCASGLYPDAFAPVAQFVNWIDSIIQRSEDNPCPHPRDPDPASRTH

[2] = molecular target: Urokinase from human urine (Homo sapiens, UniProt P00749); assay: Enzymatic assay, urokinase
Chymase, from human skin = molecular target: T2, Chymase, from human skin (Homo sapiens, UniProt P23946); assay: Enzymatic assay, chymase
T2 sequence (P23946 22-247): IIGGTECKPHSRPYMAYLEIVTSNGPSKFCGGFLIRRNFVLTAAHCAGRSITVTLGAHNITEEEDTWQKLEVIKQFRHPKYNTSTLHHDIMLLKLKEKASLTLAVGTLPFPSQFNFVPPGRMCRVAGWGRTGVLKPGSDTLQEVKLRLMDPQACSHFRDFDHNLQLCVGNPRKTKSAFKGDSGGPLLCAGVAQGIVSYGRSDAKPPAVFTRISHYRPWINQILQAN

[3] = molecular target: Trypsin, from human pancreas (Homo sapiens, UniProt P07477); assay: Enzymatic assay, trypsin; conditions: at 100 μM
[4] = molecular target: Coagulation Factor Xa, from uman plasma (Homo sapiens, UniProt P00742); assay: Enzymatic assay, coagulation factor Xa
[5] = molecular target: Thrombin, from Human Plasma (Homo sapiens, UniProt P00734); assay: Enzymatic assay, thrombin
[6] = molecular target: T3, CathepsinG, from human neutrophils (Homo sapiens, UniProt P08311); assay: Enzymatic assay, cathepsin G
T3 sequence (P08311 21-244): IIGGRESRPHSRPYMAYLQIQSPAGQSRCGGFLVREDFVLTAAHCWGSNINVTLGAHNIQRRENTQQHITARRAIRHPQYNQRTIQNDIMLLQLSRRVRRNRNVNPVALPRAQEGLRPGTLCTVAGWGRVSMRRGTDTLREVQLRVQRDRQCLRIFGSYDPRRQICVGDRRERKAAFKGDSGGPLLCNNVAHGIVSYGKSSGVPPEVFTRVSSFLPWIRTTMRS

[7] = system: Tryptase, from human lung; assay: Enzymatic assay, tryptase; conditions: at 100 μM
[8] = molecular target: Chymotrypsin, from human pancreas (Homo sapiens, UniProt P17538); assay: Enzymatic assay, chymotrypsin; conditions: at 100 μM
Sequence of Chymotrypsin, from human pancreas (P17538 19-263): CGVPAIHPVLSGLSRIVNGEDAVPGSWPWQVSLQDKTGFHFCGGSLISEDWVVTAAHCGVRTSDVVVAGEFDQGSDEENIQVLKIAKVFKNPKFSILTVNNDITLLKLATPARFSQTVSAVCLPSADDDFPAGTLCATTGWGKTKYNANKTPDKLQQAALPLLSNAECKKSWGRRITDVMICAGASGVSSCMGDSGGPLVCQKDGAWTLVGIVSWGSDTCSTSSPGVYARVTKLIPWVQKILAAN

Sequence of Coagulation Factor Xa, from uman plasma (P00742 235-488 limits assumed): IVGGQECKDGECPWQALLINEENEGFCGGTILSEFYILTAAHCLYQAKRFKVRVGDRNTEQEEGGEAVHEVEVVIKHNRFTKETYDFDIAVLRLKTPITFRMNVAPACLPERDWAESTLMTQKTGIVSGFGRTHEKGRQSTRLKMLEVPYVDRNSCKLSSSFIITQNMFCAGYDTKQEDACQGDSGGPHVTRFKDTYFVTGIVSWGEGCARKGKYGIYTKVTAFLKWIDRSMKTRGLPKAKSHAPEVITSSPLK
Sequence of Coagulation Factor Xa, from uman plasma (P00742 41-179 limits assumed): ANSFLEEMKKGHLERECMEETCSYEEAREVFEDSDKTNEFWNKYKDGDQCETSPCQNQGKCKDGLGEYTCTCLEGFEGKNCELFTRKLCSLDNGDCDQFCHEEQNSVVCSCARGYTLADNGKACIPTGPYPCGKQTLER

SMILES	Cytotoxicity LC50/GI50 Hela cells (HELA cells (Acc57)) [µM]	IC50 [1] [µM]	Urokinase at 100 μM % [2] [%]	Chymase at 100 μM % (Chymase, from human skin) [%]	Trypsin at 100 μM % [3] [%]	FXa at 100 μM % [4] [%]	Thrombin at 100 μM % [5] [%]	Chymotrypsin at 100 μM % [8] [%]	further results
CCCC[C@@H]1NC(=O)[C@@H]2CCCN2C(=O)[C@H]2CCCN2C(=O)[C@H](Cc2ccc(O)cc2)NC(=O)[C@@H]2CSSC[C@H](NC1=O)C(=O)N[C@@H]([C@@H](C)O)C(=O)N[C@@H](C)C(=O)N[C@@H](CO)C(=O)N[C@@H](CC1CCCC1)C(=O)N1CCC[C@H]1C(=O)N1CCC[C@H]1C(=O)N[C@@H](CCC(N)=O)C(=O)N2 [Ex. 112] (HELM PEPTIDE1{[Nle].C.T.A.S.[O=C([C@H](CC1CCCC1)N[*:1])[*:2]].P.P.Q.C.Y.[dP].P}$PEPTIDE1,PEPTIDE1,2:R3-10:R3|PEPTIDE1,PEPTIDE1,1:R1-13:R2$$$V2.0)	33	–	–	–	–	–	–	–	–
CCCC[C@@H]1NC(=O)[C@H](CO)NC(=O)[C@H]2CCCN2C(=O)[C@H](Cc2ccc(O)cc2)NC(=O)[C@@H]2CSSC[C@H](NC1=O)C(=O)N[C@@H]([C@@H](C)O)C(=O)N[C@@H](C)C(=O)N[C@@H](CO)C(=O)N[C@@H]([C@@H](C)CC)C(=O)N1CCC[C@H]1C(=O)N1CCC[C@H]1C(=O)N[C@@H](CCC(N)=O)C(=O)N2 [Ex. 124] (HELM PEPTIDE1{A.S.I.P.P.Q.C.Y.[dP].S.[Nle].C.T}$PEPTIDE1,PEPTIDE1,7:R3-12:R3|PEPTIDE1,PEPTIDE1,1:R1-13:R2$$$V2.0)	40	0.04	–	–	–	–	–	–	–
CCCC[C@@H]1NC(=O)[C@@H]2CCCN2C(=O)[C@@H](CCCNC(=N)N)NC(=O)[C@H](Cc2ccc(O)cc2)NC(=O)[C@@H]2CSSC[C@H](NC1=O)C(=O)N[C@@H]([C@@H](C)O)C(=O)N[C@@H](C)C(=O)N[C@@H](CO)C(=O)N[C@@H]([C@@H](C)CC)C(=O)N1CCC[C@H]1C(=O)N1CCC[C@H]1C(=O)N[C@@H](CCC(N)=O)C(=O)N2 [Ex. 117] (HELM PEPTIDE1{A.S.I.P.P.Q.C.Y.[dR].P.[Nle].C.T}$PEPTIDE1,PEPTIDE1,7:R3-12:R3|PEPTIDE1,PEPTIDE1,1:R1-13:R2$$$V2.0)	29	0.033	–	–	–	–	–	–	–
CC[C@H](C)[C@@H]1NC(=O)[C@H](CO)NC(=O)[C@H](C)NC(=O)[C@H]([C@@H](C)O)NC(=O)[C@@H]2CSSC[C@H](NC(=O)[C@H](CCC(N)=O)NC(=O)[C@@H]3CCCN3C(=O)[C@@H]3CCCN3C1=O)C(=O)N[C@@H](Cc1ccc(O)cc1)C(=O)N1CCC[C@@H]1C(=O)N1CCC[C@H]1C(=O)N[C@@H](CCC(C)C)C(=O)N2 [Ex. 100] (HELM PEPTIDE1{[CC(C)CC[C@H](N[*:1])C(=O)[*:2]].C.T.A.S.I.P.P.Q.C.Y.[dP].P}$PEPTIDE1,PEPTIDE1,2:R3-10:R3|PEPTIDE1,PEPTIDE1,1:R1-13:R2$$$V2.0)	83	–	–	–	–	–	–	–	–
CCCC[C@@H]1NC(=O)[C@@H]2CCCN2C(=O)[C@H]2CCCN2C(=O)[C@H](CCCNC(=N)N)NC(=O)[C@@H]2CSSC[C@H](NC1=O)C(=O)N[C@@H]([C@@H](C)O)C(=O)N[C@@H](C)C(=O)N[C@@H](CO)C(=O)N[C@@H]([C@@H](C)CC)C(=O)N1CCC[C@H]1C(=O)N1CCC[C@H]1C(=O)N[C@@H](CCC(N)=O)C(=O)N2 [Ex. 92] (HELM PEPTIDE1{[Nle].C.T.A.S.I.P.P.Q.C.R.[dP].P}$PEPTIDE1,PEPTIDE1,2:R3-10:R3|PEPTIDE1,PEPTIDE1,1:R1-13:R2$$$V2.0)	93	0.043	–	–	–	–	–	–	–
CC[C@H](C)[C@@H]1NC(=O)[C@@H]2CCCN2C(=O)[C@@H]2CCCN2C(=O)[C@H](CC(=O)O)NC(=O)[C@H](CO)NC(=O)[C@H](CCCCN)NC(=O)[C@H]([C@@H](C)O)NC(=O)[C@@H]2CSSC[C@H](NC1=O)C(=O)N[C@@H]([C@@H](C)O)C(=O)N1CCC[C@@H]1C(=O)N1CCC[C@H]1C(=O)N[C@@H](CCc1ccccc1)C(=O)N2 [Ex. 28] (HELM PEPTIDE1{[O=C([C@H](CCc1ccccc1)N[*:1])[*:2]].C.T.K.S.D.P.P.I.C.T.[dP].P}$PEPTIDE1,PEPTIDE1,2:R3-10:R3|PEPTIDE1,PEPTIDE1,1:R1-13:R2$$$V2.0)	–	> 100	1	0	95	6	12	32	IC50 ([6]; Cathepsin G IC50): 0.039 µM; Tryptase at 100 μM % [7]: 0%
CCCC[C@@H]1NC(=O)[C@@H]2CCCN2C(=O)[C@H]2CCCCN2C(=O)[C@H](Cc2ccc(O)cc2)NC(=O)[C@@H]2CSSC[C@H](NC1=O)C(=O)N[C@@H]([C@@H](C)O)C(=O)N[C@@H](C)C(=O)N[C@@H](CO)C(=O)N[C@@H]([C@@H](C)CC)C(=O)N1CCC[C@H]1C(=O)N1CCC[C@H]1C(=O)N[C@@H](CCC(N)=O)C(=O)N2 [Ex. 120] (HELM PEPTIDE1{A.S.I.P.P.Q.C.Y.[O=C([C@H]1CCCCN1[*:1])[*:2]].P.[Nle].C.T}$PEPTIDE1,PEPTIDE1,7:R3-12:R3|PEPTIDE1,PEPTIDE1,1:R1-13:R2$$$V2.0)	38	0.029	–	–	–	–	–	–	–
CCCC[C@@H]1NC(=O)[C@@H]2CCCN2C(=O)[C@H]2CCCN2C(=O)[C@H](Cc2ccc(O)cc2)NC(=O)[C@@H]2CSSC[C@H](NC1=O)C(=O)N[C@@H]([C@@H](C)O)C(=O)N[C@@H](C)C(=O)N[C@@H](CO)C(=O)N[C@@H]([C@@H](C)CC)C(=O)N1CCC[C@H]1C(=O)N1CCC[C@H]1C(=O)N[C@@H](Cc1ccccc1)C(=O)N2 [Ex. 89] (HELM PEPTIDE1{[Nle].C.T.A.S.I.P.P.F.C.Y.[dP].P}$PEPTIDE1,PEPTIDE1,2:R3-10:R3|PEPTIDE1,PEPTIDE1,1:R1-13:R2$$$V2.0)	51	0.043	–	–	–	–	–	–	–
CC[C@H](C)[C@@H]1NC(=O)[C@H](CO)NC(=O)[C@H](C)NC(=O)[C@H]([C@@H](C)O)NC(=O)[C@@H]2CSSC[C@H](NC(=O)[C@H](CCC(N)=O)NC(=O)[C@@H]3CCCN3C(=O)[C@@H]3CCCN3C1=O)C(=O)N[C@@H](Cc1ccccc1)C(=O)N1CCC[C@@H]1C(=O)N1CCC[C@H]1C(=O)N[C@@H](CCc1ccccc1)C(=O)N2 [Ex. 146] (HELM PEPTIDE1{[O=C([C@H](CCc1ccccc1)N[*:1])[*:2]].C.T.A.S.I.P.P.Q.C.F.[dP].P}$PEPTIDE1,PEPTIDE1,2:R3-10:R3|PEPTIDE1,PEPTIDE1,1:R1-13:R2$$$V2.0)	–	0.012	0	0	3	1	11	87	Cathepsin G at 100 μM % [6]: 1 at 100%; Tryptase At 100 μM % [7]: 22%
CC[C@H](C)[C@@H]1NC(=O)[C@H](CO)NC(=O)[C@H](C)NC(=O)[C@H]([C@@H](C)O)NC(=O)[C@@H]2CSSC[C@H](NC(=O)[C@H](CCC(N)=O)NC(=O)[C@@H]3CCCN3C(=O)[C@@H]3CCCN3C1=O)C(=O)N[C@@H](Cc1ccc(O)cc1)C(=O)N[C@H](CCCCN)C(=O)N[C@@H](CCC(=O)O)C(=O)N[C@@H](CCc1ccccc1)C(=O)N2 [compound 174] (HELM PEPTIDE1{[O=C([C@H](CCc1ccccc1)N[*:1])[*:2]].C.T.A.S.I.P.P.Q.C.Y.[dK].E}$PEPTIDE1,PEPTIDE1,2:R3-10:R3|PEPTIDE1,PEPTIDE1,1:R1-13:R2$$$V2.0)	–	0.012	1	0	7	3	11	85	Cathepsin G at 100 μM % [6]: 56 at 100%; Tryptase At 100 μM % [7]: 10%
